Measurements from PubChem BioAssay (NCI).
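Protocol summary: plate cells (96-well), add compound at 5 concentrations, incubate 48 h, interpolate endpoints linearly. The concentration for full growth arrest is given as TGI.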

Assays:
Test in all cases: NCI tumour cell line growth inhibition, 48 h
HCC-2998 colon = test system: HCC-2998 colon
K-562 leukemia = test system: K-562 leukemia
HCT-15 colon = test system: HCT-15 colon
A498 renal = test system: A498 renal
SF-268 CNS = test system: SF-268 CNS
MOLT-4 leukemia = test system: MOLT-4 leukemia
MCF7 breast = test system: MCF7 breast
MDA-MB-435 = test system: MDA-MB-435
SK-MEL-2 melanoma = test system: SK-MEL-2 melanoma
MALME-3M melanoma = test system: MALME-3M melanoma
EKVX NSCLC = test system: EKVX NSCLC
MDA-MB-231 breast = test system: MDA-MB-231 breast
KM12 colon = test system: KM12 colon
U251 CNS = test system: U251 CNS
TK-10 renal = test system: TK-10 renal
ACHN renal = test system: ACHN renal
CAKI-1 renal = test system: CAKI-1 renal
SK-OV-3 ovarian = test system: SK-OV-3 ovarian
BT-549 breast = test system: BT-549 breast

SMILES | TGI (HCC-2998 colon) [µM] | TGI (K-562 leukemia) [µM] | TGI (HCT-15 colon) [µM] | TGI (A498 renal) [µM] | TGI (SF-268 CNS) [µM] | TGI (MOLT-4 leukemia) [µM] | TGI (MCF7 breast) [µM] | TGI (MDA-MB-435) [µM] | TGI (SK-MEL-2 melanoma) [µM] | TGI (MALME-3M melanoma) [µM] | TGI (EKVX NSCLC) [µM] | TGI (MDA-MB-231 breast) [µM] | TGI (KM12 colon) [µM] | TGI (U251 CNS) [µM] | TGI (TK-10 renal) [µM] | TGI (ACHN renal) [µM] | TGI (CAKI-1 renal) [µM] | TGI (SK-OV-3 ovarian) [µM] | TGI (BT-549 breast) [µM]
CC(C)C1=CC23CCC4C(C)(C(=O)O)CCCC4(C)C2CC1C1C(=O)N(c2ccc(N4C(=O)C5C6CC7C8(C)CCCC(C)(C(=O)O)C8CCC7(C=C6C(C)C)C5C4=O)cc2)C(=O)C13 (centres undefined) | 16.4 | > 100 | 27.2 | 24.8 | 22.3 | 22 | 13.5 | 13 | 26.7 | 27.9 | 18.7 | 21.5 | 15.2 | 14.4 | 29.9 | 18.4 | – | – | –
N#CC(NNC(=O)Cc1ccccc1)c1ccc(O)cc1 (centres undefined) | – | > 100 | > 100 | – | > 100 | > 100 | – | – | > 100 | > 100 | – | – | > 100 | > 100 | > 100 | > 100 | > 100 | > 100 | –
CN1CCC2(CC1)C(=O)N(NC(N)=O)C(=O)C2c1ccccc1 (centres undefined) | > 100 | > 100 | > 100 | – | > 100 | > 100 | – | > 100 | > 100 | > 100 | > 100 | > 100 | > 100 | > 100 | > 100 | > 100 | > 100 | > 100 | > 100
CCN1CCC(O)(/C=C/c2cccc(C)c2)C(C(=O)/C=C/c2cccc(C)c2)C1 (centres undefined) | 2.96 | > 29.8 | 6.29 | 4.52 | 3.44 | > 21.5 | 6.44 | 4.61 | 5.56 | 3.53 | 4.25 | 11.5 | 3.27 | 3.31 | 3.92 | 2.93 | 4.31 | 11.4 | –
COc1ccc(/C=C2\C(=O)Nc3ccccc32)cc1OC | – | > 100 | > 100 | > 100 | > 100 | > 100 | – | – | > 100 | > 100 | > 100 | – | > 100 | > 100 | > 100 | > 100 | > 100 | > 100 | –
COc1ccccc1NC(=S)NNC(=O)c1cc(-c2ccccc2)nc2ccccc12 | 28.6 | > 100 | 20.2 | – | 74.8 | 26.5 | – | 18.5 | 31.2 | 28.9 | – | 63.7 | 46.5 | 43.7 | > 100 | 65.8 | 39.5 | 42.1 | 63.8
NC(=S)N/N=C/c1cn(CCCl)c2ccccc12 | – | > 100 | > 100 | – | > 100 | > 100 | – | – | > 100 | > 100 | > 100 | – | > 100 | – | > 100 | – | > 100 | > 100 | –
